Test results as given in ChEMBL document CHEMBL1144314, “Synthesis and antibacterial activity of 1-[1,2,4-triazol-3-yl] and 1-[1,3,4-thiadiazol-2-yl]-3-methylthio-6,7-dihydrobenzo[c]thiophen-4(5H)ones” (2005).

Columns and labels:
Type in all cases: functional
[1] = test system: Bacillus subtilis; experiment: Antimicrobial activity of the compound against Bacillus subtilis was determined
[2] = test system: Aspergillus niger; experiment: Antimicrobial activity against Aspergillus niger was determined
[3] = test system: Candida albicans; experiment: Antimicrobial activity against Candida albicans was determined
[4] = test system: Pseudomonas aeruginosa; experiment: Antimicrobial activity against Pseudomonas aeruginosa was determined
[5] = test system: Staphylococcus aureus; experiment: Antimicrobial activity of the compound against Staphylococcus aureus was determined
[6] = test system: Bacillus cereus; experiment: Antimicrobial activity against Bacillus cereus was determined
[7] = test system: Staphylococcus epidermidis; experiment: Antimicrobial activity against Staphylococcus epidermidis was determined

Row | Compound | Zone of inhibition [1] [mm] | Zone of inhibition [2] [mm] | Zone of inhibition [3] [mm] | Zone of inhibition [5] [mm] | Zone of inhibition [7] [mm] | further results
1 | CCCCNc1nnc(-c2sc(SC)c3c2CCCC3=O)s1 | 22 | 9 | 11 |  |  | 
2 | O=C1CN(/N=C/c2ccc([N+](=O)[O-])o2)C(=O)N1 [NITROFURANTOIN] | 18 |  |  | 21 |  | Zone of inhibition [4]: 21 mm; Zone of inhibition [6]: 20 mm
3 | CSc1sc(-c2nnc(S)n2-c2ccc([N+](=O)[O-])cc2)c2c1C(=O)CCC2 | 23 |  |  | 18 | 25 | Zone of inhibition [4]: 14 mm
4 | CSc1sc(-c2nnc(Nc3ccc([N+](=O)[O-])cc3)s2)c2c1C(=O)CCC2 | 33 | 10 | 14 |  |  | 
5 | CCNc1nnc(-c2sc(SC)c3c2CCCC3=O)s1 | 20 | 8 | 13 |  |  | 
6 | GENTAMICIN |  |  |  |  |  | inhibition zone (IZ) [1]: 30 mm; inhibition zone (IZ) [6]: 28 mm; inhibition zone (IZ) [7]: 20 mm
7 | CCCCn1c(S)nnc1-c1sc(SC)c2c1CCCC2=O | 14 |  |  | 17 | 26 | 
8 | CSc1sc(-c2nnc(NC3CCCCC3)s2)c2c1C(=O)CCC2 |  | 12 |  |  |  | 
9 | CNc1nnc(-c2sc(SC)c3c2CCCC3=O)s1 | 28 | 11 | 12 |  |  | 
10 | CSc1sc(-c2nnc(SC)n2-c2ccc([N+](=O)[O-])cc2)c2c1C(=O)CCC2 | 21 |  |  | 18 | 24 | Zone of inhibition [4]: 14 mm; Zone of inhibition [6]: 12 mm
11 | COc1ccc(-n2c(S)nnc2-c2sc(SC)c3c2CCCC3=O)cc1 | 11 |  |  |  |  | 
12 | C[C@@H]1[C@H](O)[C@@H](C)/C=C/C=C/C=C/C=C/C=C/C=C/C=C/[C@H](O[C@@H]2O[C@H](C)[C@@H](O)[C@H](N)[C@@H]2O)C[C@@H]2O[C@](O)(C[C@@H](O)C[C@@H](O)[C@H](O)CC[C@@H](O)C[C@@H](O)CC(=O)O[C@H]1C)C[C@H](O)[C@H]2C(=O)O [AMPHOTERICIN B] |  | 22 | 22 |  |  | 
13 | CCCCn1c(SC)nnc1-c1sc(SC)c2c1CCCC2=O | 16 |  |  | 17 | 26 | Zone of inhibition [6]: 16 mm
